Laboratory results taken from paper PMC8154229 (ACS Omega, 2021).

Molecular target: human H1R (Homo sapiens, UniProt P35367)
Assay type: binding
Conditions: between 13 and 17

Chain of human H1R (P35367 whole entry): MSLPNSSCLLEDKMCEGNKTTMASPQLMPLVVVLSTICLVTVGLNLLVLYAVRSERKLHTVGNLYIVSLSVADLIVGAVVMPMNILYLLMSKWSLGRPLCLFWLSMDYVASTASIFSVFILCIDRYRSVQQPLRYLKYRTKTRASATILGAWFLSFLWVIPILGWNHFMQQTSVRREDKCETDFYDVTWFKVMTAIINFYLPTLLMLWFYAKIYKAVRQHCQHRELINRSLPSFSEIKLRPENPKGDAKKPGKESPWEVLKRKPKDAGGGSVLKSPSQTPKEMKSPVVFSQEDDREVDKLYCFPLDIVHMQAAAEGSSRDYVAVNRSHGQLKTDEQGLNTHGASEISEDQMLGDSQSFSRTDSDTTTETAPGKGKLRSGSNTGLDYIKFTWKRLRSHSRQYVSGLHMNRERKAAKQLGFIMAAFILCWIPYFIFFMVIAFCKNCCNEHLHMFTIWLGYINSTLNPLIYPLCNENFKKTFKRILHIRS

- fold difference in affinity: 100 fold
Structure (SMILES): CN1CCC(=C2c3ccccc3CCc3ccccc32)CC1 [Compound 13, 4-(10,11-Dihydro-5H-dibenzo[a,d][7]annulen-5-ylidene)-1-methylpiperidine]
